Patent US20230136562A1, “SPIROUREA DERIVATIVES” (Idorsia Pharmaceuticals Ltd, priority 2020, published 2023)
Where two headings read alike, the source gives them in different places.

Test system: primary neuronal cultures from embryonic rat brains
Test: Rat oscillation assay (FLIPR, neuronal calcium oscillations)
Format: cell-based
Method: A) Rat Oscillation Assay:
This assay is a functional phenotypic assay designed to mimic epileptic seizures using primary neuronal cultures from embryonic rat brains, which form a functional neuronal network that generate synchronized intracellular calcium concentration oscillations when cultured at high density in 384-well plate. The epileptic phenotype is induced by incubating the neurons in magnesium-free assay buffer, that results in increased probability of NMDA receptor activation, leading to an increased frequency and amplitude of intracellular calcium oscillations. Once neurons are incubated with the calcium indicator dye Fluo-8 AM (Tebu-bio), neuronal calcium oscillations can be monitored in real time using FLIPR® Tetra (fluorometric plate reader, Molecular Devices). With these recordings, the effect of anti-epileptic drugs can be quantified. The anti-epileptic effect of compounds, which activate directly or indirectly the Kv7 channels can be modulated by the Kv7 channel blocker XE-991. The assay was performed as described previously (Pacico N, Mingorance-Le Meur A. New In Vitro Phenotypic Assay for Epilepsy: Fluorescent Measurement of Synchronized Neuronal Calcium Oscillations. PLoS ONE 9(1) 2014) with modifications described hereafter.
Animal care followed standard procedures in accordance with swiss institutional guidelines. Dissociated neuronal cultures were obtained from cerebral cortices of embryonic Wistar rats at embryonic stage E18 (Charles River). The uterine horns were removed by caesarian surgery from deeply anesthetized rats (Isofurane) and sacrificed by decapitation. The embryos were decapitated by closing forceps. The brains were isolated and dissected one by one in ice-cold PBS (Life Technologies) under optical control using a binocular. Meninges, olfactory bulbs, and basal ganglia were removed. Cortical hemispheres (still including the hippocampus) were cut in small pieces with tweezers and placed on ice in pre-chilled Hibernate-E medium (Life technology). The hemispheres were then incubated in 10 mL of Hibernate-E containing 15 U/mL papain (Worthington) for 25 min at 30° C. with gentle mixing every 10 min. Genomic DNA was then digested by prolonging the incubation during 10 min at 37° C. in presence of 4 U/mL rDNase I (Ambion). The obtained suspension was then centrifuged at 800 g for 5 min and the cell pellet was resuspended in 2 mL Hibernate-E and gently dissociated by pipetting up and down 10 times with a plastic Pasteur pipette resulting in a homogenous cell suspension. This suspension was immediately filtered through a 70 µm cell strainer (MACS® SmartStrainer, Miltenyi), collected in 10 mL Hibernate-E and centrifuged at 800 g for 5 min. The cell pellet was resuspended in Neurobasal medium, supplemented with 2% B-27, 0.5 mM Glutamax-I, 100 U/mL penicillin, 100 µg/mL streptomycin (Life Technologies) and diluted at the final concentration of 300′000 cells/mL. One day before plating the cells, 384-well plates were coated with 25 μL/well of 0.1% poly-L-lysine solution (Sigma), incubated overnight at 37° C., washed two times with sterile distilled water and allowed to dry at room temperature for >2 h. The neurons were seeded at a density of 15′000 cells/well in 50 μL/well in a 384-well black, clear-bottomed plates (Corning) and subsequently maintained in an incubator at 37° C., 5% CO2 and 95% humidity for 8 to 10 days. After 3 and 7 days, 40% of media was renewed under sterile conditions.
Protocol Rat Oscillation Assay
Neurons seeded in the assay plates were washed with Hank's balanced salt solution (HBSS) devoid of Ca^2+ and Mg^2+, supplemented with 20 mM HEPES (Life Technologies) and 2 mM CaCl2 (Sigma), pH 7.4 (hereafter called Assay buffer) using a Biotek EL406 plate washer. Neurons were loaded with 1 μM Fluo-8 AM in Assay buffer for 15 min at 37° C., 5% CO2. […]

[1] = Rattus norvegicus, 20 min, AUC of fluorescence measured 20 min after compound addition, read-out: FLIPR: IC50 [nM] 20 min
[2] = Rattus norvegicus, Acute phase, ratio of AUC fluorescence before and after compound addition, read-out: FLIPR: IC50 [nM] acute

Structure (SMILES) | IC50 [1] | IC50 [2] | IC50 (AUC of fluorescence measured 20 min after compound addition, read-out: FLIPR: IC50 [nM] 20 min) | IC50 (Acute phase, ratio of AUC fluorescence before and after compound addition, read-out: FLIPR: IC50 [nM] acute)
Cc1nc(OCC(F)(F)F)cc(C(CO)NC(=O)NC2CC3(CC3)C2)n1 (racemic) [Example 123, (±)-1-{2-Hydroxy-1-[2-methyl-6-(2,2,2-trifluoro-ethoxy)-pyrimidin-4-yl]-ethyl}-3-spiro[2.3]hex-5-yl-urea] | 367 nM | 395 nM |  | 
CC(NC(=O)NC1CC2(CC2)C1)c1cccc(S(F)(F)(F)(F)F)c1 (racemic) [Example 127, (±)-1-(1-(3-(pentafluoro-λ^6-sulfaneyl)phenyl)ethyl)-3-(spiro[2.3]hexan-5-yl)urea] | 22 nM | 19 nM |  | 
O=C(NCc1ccnc(OC(F)(F)F)c1)NC1CC2(CC2)C1 [Example 153, 1-Spiro[2.3]hex-5-yl-3-(2-trifluoromethoxy-pyridin-4-ylmethyl)-urea] | 601 nM | 336 nM |  | 
CC(NC(=O)NC1CC2(CCC2)C1)c1cccc(C(F)(F)F)c1 (racemic) [Example 23, (±)-1-Spiro[3.3]hept-2-yl-3-[1-(3-trifluoromethyl-phenyl)-ethyl]-urea] | 4.6 nM | 13 nM |  | 
CC(Oc1ccnc(CNC(=O)NC2CC3(CCC3)C2)c1)C(F)(F)F (racemic) [Example 117, (±)-1-Spiro[3.3]hept-2-yl-3-[4-(2,2,2-trifluoro-1-methyl-ethoxy)-pyridin-2-ylmethyl]-urea] | 286 nM | 195 nM |  | 
O=C(NC1CC2(CCC2)C1)N1CCc2c(ccnc2OCC(F)(F)F)C1 [Example 53, 5-(2,2,2-Trifluoro-ethoxy)-3,4-dihydro-1H-[2,6]naphthyridine-2-carboxylic acid spiro[3.3]hept-2-ylamide] | 226 nM | 185 nM |  | 
O=C(NC1CC2(CCC2)C1)NC1(c2ccnc(OCC(F)(F)F)c2)CCOCC1 [Example 49, 1-Spiro[3.3]hept-2-yl-3-{4-[2-(2,2,2-trifluoro-ethoxy)-pyridin-4-yl]-tetrahydro-pyran-4-yl}-urea] | 1530 nM | 680 nM |  | 
O=C(NCc1ccc(F)c(OCC(F)(F)F)c1)NC1CC2(CCC2)C1 [Example 114, 1-[4-Fluoro-3-(2,2,2-trifluoro-ethoxy)-benzyl]-3-spiro[3.3]hept-2-yl-urea] | 61 nM | 107 nM |  | 
COc1c(C(C)NC(=O)NC2CC3(CCC3)C2)cccc1C(F)(F)F (racemic) [Example 21, (±)-1-[1-(2-Methoxy-3-trifluoromethyl-phenyl)-ethyl]-3-spiro[3.3]hept-2-yl-urea] | 72 nM | 112 nM |  | 
O=C(NCc1cccc(C(F)(F)F)c1F)NC1CC2(CCC2)C1 [Example 12, 1-(2-Fluoro-3-trifluoromethyl-benzyl)-3-spiro[3.3]hept-2-yl-urea] | 55 nM | 36 nM |  | 
C[C@H](NC(=O)NC1CC2(CCC2)C1)c1cccc(OC(F)F)c1 (single isomer, unassigned) [Example 173] | 11 nM | 7 nM |  | 
Cc1nc(OCC(F)(F)F)cc(C(C)NC(=O)NC2CC3(CC3)C2)n1 (racemic) [Example 145, (±)-1-{1-[2-Methyl-6-(2,2,2-trifluoro-ethoxy)-pyrimidin-4-yl]-ethyl}-3-spiro[2.3]hex-5-yl-urea] | 80 nM | 57 nM |  | 
CC(C)OCC(NC(=O)NC1CC2(CCC2)C1)c1cccc(C(F)(F)F)c1 (racemic) [Example 72, (±)-1-[2-Isopropoxy-1-(3-trifluoromethyl-phenyl)-ethyl]-3-spiro[3.3]hept-2-yl-urea] | 238 nM | 266 nM |  | 
COc1ccc(OCC(F)(F)F)cc1C(C)NC(=O)NC1CC2(CCC2)C1 (racemic) [Example 40, (±)-1-{1-[2-Methoxy-5-(2,2,2-trifluoro-ethoxy)-phenyl]-ethyl}-3-spiro[3.3]hept-2-yl-urea] | 382 nM | 351 nM |  | 
Cc1c(OCC(F)(F)F)cccc1C(C)NC(=O)NC1CC2(CCC2)C1 (racemic) [Example 29, (±)-1-{1-[2-Methyl-3-(2,2,2-trifluoro-ethoxy)-phenyl]-ethyl}-3-spiro[3.3]hept-2-yl-urea] | 253 nM | 452 nM |  | 
O=C(NCc1cccc(COC(F)(F)F)c1)NC1CC2(CCC2)C1 [Example 43, 1-Spiro[3.3]hept-2-yl-3-(3-trifluoromethoxymethyl-benzyl)-urea] | 22 nM | 16 nM |  | 
COc1c(C(C)NC(=O)NC2CC3(CC3)C2)cccc1C(F)(F)F (racemic) [Example 133, (±)-1-[1-(2-Methoxy-3-trifluoromethyl-phenyl)-ethyl]-3-spiro[2.3]hex-5-yl-urea] | 670 nM | 396 nM |  | 
CC(C)(O)C(NC(=O)NC1CC2(CCC2)C1)c1cccc(C(F)(F)F)c1 (racemic) [Example 45, (±)-1-[2-Hydroxy-2-methyl-1-(3-trifluoromethyl-phenyl)-propyl]-3-spiro[3.3]hept-2-yl-urea] | 628 nM | 549 nM |  | 
O=C(NCc1cccc(C(F)(F)F)c1)NC1CC2(C1)CC2(F)F (single isomer, unassigned) [Example 4, 1-(1,1-Difluoro-spiro[2.3]hex-5-yl)-3-(3-trifluoromethyl-benzyl)-urea] |  |  | 152 nM | 175 nM
Cn1nncc1C(NC(=O)NC1CC2(CCC2)C1)c1cccc(C(F)(F)F)c1 (racemic) [Example 165, (±)-1-[(3-Methyl-3H-[1,2,3]triazol-4-yl)-(3-trifluoromethyl-phenyl)-methyl]-3-spiro[3.3] hept-2-yl-urea] | 289 nM | 145 nM |  | 
O=C(NC1CC2(CCC2)C1)NC1(c2ccnc(OC(F)F)c2)CCC1 [Example 51, 1-[1-(2-Difluoromethoxy-pyridin-4-yl)-cyclobutyl]-3-spiro[3.3]hept-2-yl-urea] | 65 nM | 80 nM |  | 
COc1c(OCC(F)(F)F)cccc1C(C)NC(=O)NC1CC2(CCC2)C1 (racemic) [Example 31, (±)-1-{1-[2-Methoxy-3-(2,2,2-trifluoro-ethoxy)-phenyl]-ethyl}-3-spiro[3.3]hept-2-yl-urea] | 25 nM | 20 nM |  | 
O=C(NCc1nccc(OCC(F)(F)F)n1)NC1CC2(CC2)C1 [Example 126, 1-Spiro[2.3]hex-5-yl-3-[4-(2,2,2-trifluoro-ethoxy)-pyrimidin-2-ylmethyl]-urea] | 7620 nM | 4960 nM |  | 
O=C(NC1CC2(CCC2)C1)NC(c1cccc(C(F)(F)F)c1)C(F)F (centres unmarked) [Example 57, 1-[2,2-Difluoro-1-(3-trifluoromethyl-phenyl)-ethyl]-3-spiro[3.3]hept-2-yl-urea] | 2.3 nM | 2.9 nM |  | 
COC[C@H](NC(=O)NC1CC2(CCC2)C1)c1ccnc(OC(F)F)c1 (single isomer, unassigned) [Example 187] | 3.9 nM | 2.7 nM |  | 
O=C(NC1CC2(CC2)C1)NC1(c2cccc(OC(F)F)c2)CC1 [Example 136, 1-[1-(3-Difluoromethoxy-phenyl)-cyclopropyl]-3-spiro[2.3]hex-5-yl-urea] | 386 nM | 334 nM |  | 
O=C(NCc1cccc(C(F)(F)F)c1Cl)NC1CC2(CC2)C1 [Example 150, 1-(2-Chloro-3-trifluoromethyl-benzyl)-3-spiro[2.3]hex-5-yl-urea] | 1160 nM | 1080 nM |  | 
CS(=O)(=O)CCC(NC(=O)NC1CC2(CCC2)C1)c1cccc(C(F)(F)F)c1 (racemic) [Example 81, (±)-1-[3-Methanesulfonyl-1-(3-trifluoromethyl-phenyl)-propyl]-3-spiro[3.3]hept-2-yl-urea] | 941 nM | 2180 nM |  | 
